From ChEMBL document CHEMBL4000252, “Discovery of N-(2-aminoethyl)-N-benzyloxyphenyl benzamides: New potent Trypanosoma brucei inhibitors” (Bioorg Med Chem, 2017) come the findings set out here.

The structures appear in SMILES notation. Calls of active or inactive are those of the source. No cut-off for these calls is given here. Where only a bound is given, the exact number is not on record here.

Data set [1] concerns Trypanosoma brucei brucei. The data set is described as follows: Antiparasitic activity against Trypanosoma brucei brucei BF427 assessed as growth inhibition after 48 hrs by Alamar blue assay. The conditions noted are these: BF427, 48 h. Format: functional.
Another data set concerns L6. The data set is described as follows: Cytotoxicity against rat L6 cells assessed as growth inhibition after 48 hrs by Alamar blue assay. In kind it is cell-based. Conditions: l6, 48 h.
For data set [2], the system named is Trypanosoma brucei brucei. The data set is described as follows: Antiparasitic activity against Trypanosoma brucei brucei TREU667 infected in mouse assessed as decrease in parasitemia at 10 mg/kg, ip administered as single dose on day 21 post infection measured on day 41 to 42 by microscopic method. In kind it is functional, organism-based.
For data set [3], the system named is Trypanosoma brucei brucei. Kind of data set: Antiparasitic activity against Trypanosoma brucei brucei TREU667 infected in mouse assessed as decrease in parasitemia at 10 mg/kg, ip administered as single dose on day 21 post infection measured on day 43 to 45 by microscopic method. Format: functional, organism-based.
The test system of data set [4] is Trypanosoma brucei brucei. The data set is described as follows: Antiparasitic activity against Trypanosoma brucei brucei TREU667 infected in mouse assessed as decrease in parasitemia at 10 mg/kg, ip administered as single dose on day 21 post infection measured on day 39 by microscopic method. In kind it is functional, organism-based.
In data set [5] the test system is Trypanosoma brucei brucei. The data set is described as follows: Antiparasitic activity against Trypanosoma brucei brucei TREU667 infected in mouse assessed as decrease in parasitemia at 10 mg/kg, ip administered as single dose on day 21 post infection measured on day 35 by microscopic method. In kind it is functional, organism-based.
Data set [6] relates to Trypanosoma brucei brucei. The data set is described as follows: Antiparasitic activity against Trypanosoma brucei brucei TREU667 infected in mouse assessed as decrease in parasitemia at 10 mg/kg, ip administered as single dose on day 21 post infection measured on day 37 by microscopic method. In kind it is functional, organism-based.
Data set [7] relates to Trypanosoma brucei brucei. The data set is described as follows: Antiparasitic activity against Trypanosoma brucei brucei TREU667 infected in mouse assessed as decrease in parasitemia at 10 mg/kg, ip administered as single dose on day 21 post infection measured on day 34 by microscopic method. Format: functional, organism-based.
Data set [8] relates to Trypanosoma brucei brucei. Kind of data set: Antiparasitic activity against Trypanosoma brucei brucei TREU667 infected in mouse assessed as decrease in parasitemia at 10 mg/kg, ip administered as single dose on day 21 post infection measured on day 36 by microscopic method. In kind it is functional, organism-based.
In data set [9] the test system is Trypanosoma brucei brucei. Kind of data set: Antiparasitic activity against Trypanosoma brucei brucei TREU667 infected in mouse assessed as decrease in parasite levels in brain at 10 mg/kg, ip administered as single dose on day 21 post infection by microscopic method. In kind it is functional, organism-based.
The test system of data set [10] is Trypanosoma brucei brucei. Kind of data set: Antiparasitic activity against Trypanosoma brucei brucei TREU667 infected in mouse assessed as decrease in parasite levels in peripheries at 10 mg/kg, ip administered as single dose on day 21 post infection by microscopic method. In kind it is functional, organism-based.
Data set [11] deals with Trypanosoma brucei brucei. The data set is described as follows: Antiparasitic activity against Trypanosoma brucei brucei TREU667 infected in mouse assessed as decrease in parasitemia at 10 mg/kg, ip administered as single dose on day 21 post infection measured on day 40 by microscopic method. Format: functional, organism-based.
For data set [12], the system named is Trypanosoma brucei brucei. The data set is described as follows: Antiparasitic activity against Trypanosoma brucei brucei TREU667 infected in mouse assessed as decrease in parasitemia at 10 mg/kg, ip administered as single dose on day 21 post infection measured on day 38 by microscopic method. Format: functional, organism-based.
For data set [13], the system named is Trypanosoma brucei brucei. The data set is described as follows: Antiparasitic activity against Trypanosoma brucei brucei TREU667 infected in mouse assessed as decrease in parasitemia at 10 mg/kg, ip administered as single dose on day 21 post infection measured on day 50 to 51 by microscopic method. In kind it is functional, organism-based.
For data set [14], the system named is Trypanosoma brucei rhodesiense. Kind of data set: Antiparasitic activity against Trypanosoma brucei rhodesiense STIB900 infected in Swiss-Webster mouse assessed as cure rate at 50 mg/kg, bid administered via oral gavage from day 2 to 5 post infection measured after 60 days by microscopic method relative to control. In kind it is functional.
Another data set relates to Liver. The data set is described as follows: Half life in human liver microsomes at 1.5 uM by LC-MS analysis. Format: ADME, microsome.
The test system of data set [15] is Trypanosoma brucei brucei. The data set is described as follows: Antiparasitic activity against Trypanosoma brucei brucei BF427 assessed as growth inhibition at 32 times EC50 pretreated for 24 hrs followed by compound washout measured after 10 days by light microscopic method. Format: functional.
A short description of data set [16]: Ratio of drug level in brain to plasma in mouse at 5 mg/kg, ip after 1 hr by LC-MS analysis. Format: ADME, organism-based.
A short description of data set [17]: AUC (0 to 8 hrs) in mouse at 50 mg/kg, po by LC-MS analysis. Format: ADME, organism-based. Conditions: in vivo. The arrangement: dose 50 mg/kg, time < 8 hr, route oral.
A short description of data set [18]: Cytotoxicity against human CRL8155 cells assessed as growth inhibition after 48 hrs by Alamar blue assay. In kind it is cell-based. Conditions: crl8155, 48 h.
Data set [19] has as its system Trypanosoma brucei brucei. The data set is described as follows: Antiparasitic activity against Trypanosoma brucei brucei BF427 assessed as growth inhibition at 64 times EC50 pretreated for 72 hrs followed by compound washout measured after 10 days by light microscopic method. Format: functional.
Data set [20] can be described thus: Cmax in mouse at 50 mg/kg, po by LC-MS analysis. Conditions: in vivo. In kind it is ADME, organism-based. Details: dose 50 mg/kg, route oral.
Data set [21] deals with Trypanosoma brucei brucei. Kind of data set: Antiparasitic activity against Trypanosoma brucei brucei BF427 assessed as growth inhibition at 64 times EC50 pretreated for 48 hrs followed by compound washout measured after 10 days by light microscopic method. In kind it is functional.
In another data set the test system is HepG2. The data set is described as follows: Cytotoxicity against human HepG2 cells assessed as growth inhibition after 48 hrs by Alamar blue assay. In kind it is cell-based. The conditions noted are these: hepg2, 48 h.
For data set [22], the system named is Trypanosoma brucei brucei. Kind of data set: Antiparasitic activity against Trypanosoma brucei brucei BF427 assessed as growth inhibition at 16 times EC50 pretreated for 96 hrs followed by compound washout measured after 10 days by light microscopic method. Format: functional.
In data set [23] the test system is Trypanosoma brucei brucei. The data set is described as follows: Antiparasitic activity against Trypanosoma brucei brucei TREU667 infected in mouse assessed as decrease in parasitemia at 50 mg/kg, bid administered via oral gavage on day 21 to 34 post infection measured on day 39 by microscopic method. In kind it is functional, organism-based.
For data set [24], the system named is Trypanosoma brucei brucei. Kind of data set: Antiparasitic activity against Trypanosoma brucei brucei TREU667 infected in mouse assessed as decrease in parasitemia at 50 mg/kg, bid administered via oral gavage on day 21 to 34 post infection measured on day 52 to 180 by microscopic method. Format: functional, organism-based.
Data set [25] deals with Trypanosoma brucei brucei. Kind of data set: Antiparasitic activity against Trypanosoma brucei brucei TREU667 infected in mouse assessed as decrease in parasitemia at 50 mg/kg, bid administered via oral gavage on day 21 to 34 post infection measured on day 34 by microscopic method. In kind it is functional, organism-based.
In data set [26] the test system is Trypanosoma brucei brucei. The data set is described as follows: Antiparasitic activity against Trypanosoma brucei brucei TREU667 infected in mouse assessed as decrease in parasitemia at 50 mg/kg, bid administered via oral gavage on day 21 to 34 post infection measured on day 50 to 51 by microscopic method. In kind it is functional, organism-based.
Data set [27] deals with Trypanosoma brucei brucei. The data set is described as follows: Antiparasitic activity against Trypanosoma brucei brucei TREU667 infected in mouse assessed as decrease in parasitemia at 50 mg/kg, bid administered via oral gavage on day 21 to 34 post infection measured on day 41 to 42 by microscopic method. Format: functional, organism-based.
Data set [28] has as its system Trypanosoma brucei brucei. Kind of data set: Antiparasitic activity against Trypanosoma brucei brucei TREU667 infected in mouse assessed as decrease in parasitemia at 50 mg/kg, bid administered via oral gavage on day 21 to 34 post infection measured on day 46 to 49 by microscopic method. In kind it is functional, organism-based.
Data set [29] has as its system Trypanosoma brucei brucei. The data set is described as follows: Antiparasitic activity against Trypanosoma brucei brucei TREU667 infected in mouse assessed as decrease in parasitemia at 50 mg/kg, bid administered via oral gavage on day 21 to 34 post infection measured on day 36 by microscopic method. In kind it is functional, organism-based.
Data set [30] concerns Trypanosoma brucei brucei. Kind of data set: Antiparasitic activity against Trypanosoma brucei brucei TREU667 infected in mouse assessed as decrease in parasitemia at 50 mg/kg, bid administered via oral gavage on day 21 to 34 post infection measured on day 38 by microscopic method. In kind it is functional, organism-based.
Data set [31] concerns Trypanosoma brucei brucei. The data set is described as follows: Antiparasitic activity against Trypanosoma brucei brucei TREU667 infected in mouse assessed as decrease in parasitemia at 50 mg/kg, bid administered via oral gavage on day 21 to 34 post infection measured on day 43 to 45 by microscopic method. Format: functional, organism-based.
The subject of data set [32] is Trypanosoma brucei brucei. Kind of data set: Antiparasitic activity against Trypanosoma brucei brucei TREU667 infected in mouse assessed as decrease in parasitemia at 50 mg/kg, bid administered via oral gavage on day 21 to 34 post infection measured on day 35 by microscopic method. In kind it is functional, organism-based.
In data set [33] the test system is Trypanosoma brucei brucei. The data set is described as follows: Antiparasitic activity against Trypanosoma brucei brucei TREU667 infected in mouse assessed as decrease in parasitemia at 50 mg/kg, bid administered via oral gavage on day 21 to 34 post infection measured on day 37 by microscopic method. Format: functional, organism-based.
The subject of data set [34] is Trypanosoma brucei brucei. The data set is described as follows: Antiparasitic activity against Trypanosoma brucei brucei TREU667 infected in mouse assessed as decrease in parasitemia at 50 mg/kg, bid administered via oral gavage on day 21 to 34 post infection measured on day 40 by microscopic method. Format: functional, organism-based.

With `NCCN(C(=O)c1ccc(Cl)cc1Cl)c1ccc(C(F)(F)F)cc1`, in data set [1], the EC50 was 1.05 µM. Besides, the CC50 in the data set with L6 amounted to 13.2 µM.

For `N=C(N)c1ccc(/N=N/Nc2ccc(C(=N)N)cc2)cc1`, the result in data set [2], in data set [3], in data set [4], in data set [5], in [6] and in data set [7] was Active. Moreover, the result in [8], in data set [10], in [11] and in data set [12] was Active. Also, the result in data set [9] and in [13] was inactive.

Consider `Cc1cc(C)cc(COc2ccc(N(CCN)C(=O)c3cccnc3Cl)cc2)c1.Cl.Cl`, for which the EC50 in [1] stood at 0.015 µM. In addition, the Activity in [14] was 67 - 80%. For the same molecule, the t1/2 in the data set with Liver stood at 39 min. Besides, the “growth inhibition (GI)” value in data set [15], in [19], in data set [21] and in data set [22] was “Active” throughout. The BPR in data set [16] was determined as 0.06. Also, the exposure AUC(0-t) at 8 h in data set [17] is 10.9 µM·h. The CC50 was determined as 5.12 µM in data set [18] and 8.38 µM in the data set on HepG2. For the same molecule, the Cmax in [20] was found to be 2070 nM.

For `CC1(C)OB(O)c2cc(NC(=O)c3ccc(F)cc3C(F)(F)F)ccc21`, the result in data set [23], in [24], in data set [25], in [26], in data set [27] and in [28] was Active. Moreover, the result in data set [29], in [30], in data set [31], in [32], in data set [33] and in data set [34] was Active.

On to `COc1ccc(N(CCN)C(=O)c2ccc(Cl)cc2Cl)cc1`, for which, in data set [1], the concentration giving a half-maximal response (EC50) was above 6 µM. Besides, the CC50 with L6 is 56.1 µM.
